Assay results reported in patent publication US8546392B2, “17Beta-hydroxysteroid dehydrogenase type 1 inhibitors for the treatment of hormone-related diseases” (Universitaet des Saarlandes, priority 2008, dated 2013).

Experiments:
17β-HSD1 = 17β-HSD1 (Homo sapiens (Human), UniProt P14061); experiment: 17β-HSD1 test assay (recombinant protein from Sf9 insect cells, 3H-estrone/NADPH); assay type: biochemical; settings: for inhibition at 1 µM: read-out: HSD 1 μM (% inhibition of HSD1); for inhibition at 0.1 µM: read-out: HSD1 100 nM (% inhibition)
Method: Recombinant protein obtained from Sf9 insect cells (0.1 μg/ml) is incubated with 20 mM KH2PO4, pH 7.4, 30 nM ^3H-estrone and 1 mM NADPH for 30 min at RT in the presence of the potential inhibitor in a concentration of 1 μM or 100 nM. The stock solutions of the compounds are prepared in DMSO (dimethylsulfoxide) so that the final concentration of DMSO in the sample is 1%. After the prescribed incubation time, the reaction is quenched by adding trichloroacetic acid (10% final concentration). The samples are centrifuged in microtitration plates at 400 rpm for 10 min, and the supernatants are charged on a reversed-phase HPLC equipped with a Waters Symmetrie C18 column and Waters Sentry Guard column. The isocratic HPLC run is performed at RT with a flow rate of 1 ml/min and acetonitrile/water 48:52 as the eluent. The radioactivity was measured by means of a Packard Flow Scintillation Analyzer. […]

17β-HSD2 = 17β-HSD2 (Homo sapiens (Human), UniProt P37059); experiment: 17β-HSD2 test assay (recombinant protein from Sf9 insect cells, 3H-estradiol/NAD+); assay type: biochemical; settings: for inhibition at 0.1 µM: read-out: HSD2 100 nM (% inhibition), inhibitor 100 nM; for inhibition at 1 µM: read-out: HSD2 1 μM (% inhibition), inhibitor 1 μM
Method: Recombinant protein obtained from Sf9 insect cells (0.1 μg/ml) is incubated with 20 mM KH2PO4, pH 7.4, 30 nM ^3H-estradiol and 1 mM NAD+ for 30 min at RT in the presence of the potential inhibitor in a concentration of 1 μM or 100 nM. The stock solutions of the compounds are prepared in DMSO so that the final concentration of DMSO in the sample is 1%. After the prescribed incubation time, the reaction is quenched by adding trichloroacetic acid (10% final concentration). The samples are centrifuged in microtitration plates at 400 rpm for 10 min, and the supernatants are charged on a reversed-phase HPLC equipped with a Waters Symmetrie C18 column and
Waters Sentry Guard column. The isocratic HPLC run is performed at RT with a flow rate of 1 ml/min and acetonitrile/water 48:52 as the eluent. The radioactivity was measured by means of a Packard Flow Scintillation Analyzer. The percent inhibition was calculated by means of the formulas stated above.

Chain of 17β-HSD2 (P37059 whole entry): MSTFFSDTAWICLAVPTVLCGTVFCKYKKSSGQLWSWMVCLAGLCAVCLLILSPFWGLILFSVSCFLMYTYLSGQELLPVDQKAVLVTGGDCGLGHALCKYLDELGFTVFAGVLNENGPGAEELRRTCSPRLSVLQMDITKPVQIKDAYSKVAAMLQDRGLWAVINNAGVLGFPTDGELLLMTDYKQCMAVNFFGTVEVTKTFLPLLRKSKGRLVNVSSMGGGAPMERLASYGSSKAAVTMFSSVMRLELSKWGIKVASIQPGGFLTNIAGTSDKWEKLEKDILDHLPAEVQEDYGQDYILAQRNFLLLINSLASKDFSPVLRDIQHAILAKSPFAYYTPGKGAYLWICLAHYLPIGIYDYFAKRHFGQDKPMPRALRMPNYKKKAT
Chain of 17β-HSD1 (P14061 whole entry): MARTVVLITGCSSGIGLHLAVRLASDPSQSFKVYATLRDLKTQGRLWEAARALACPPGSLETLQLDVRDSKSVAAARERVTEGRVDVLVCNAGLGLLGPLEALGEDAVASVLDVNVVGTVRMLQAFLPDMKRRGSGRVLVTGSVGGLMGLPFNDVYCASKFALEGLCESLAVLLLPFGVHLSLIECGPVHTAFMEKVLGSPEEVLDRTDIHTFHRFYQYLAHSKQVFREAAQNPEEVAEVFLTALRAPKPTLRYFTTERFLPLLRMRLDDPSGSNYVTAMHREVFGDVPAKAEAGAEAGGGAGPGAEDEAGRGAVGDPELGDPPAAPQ

Compound | inhibition at 1 µM (17β-HSD1; inhibitor 1 μM) | inhibition at 0.1 µM (17β-HSD1; inhibitor 100 nM) | further results
CNC(=O)/C=C/c1c(O)ccc2cc(-c3cccc(O)c3)ccc12 [Compound 39, (E)-3-(2-Hydroxy-6-(3-hydroxyphenyl)naphthalene-1-yl)-N-methylacrylamide] | 57.6% | 19.2% | inhibition at 0.1 µM (17β-HSD2): 33.9%; inhibition at 1 µM (17β-HSD2): 73.2%
O=C(O)c1cccc(-c2c(O)ccc3cc(-c4cccc(O)c4)ccc23)c1 [Compound 63, 3-(2-Hydroxy-6-(3-hydroxyphenyl)naphthalene-1-yl)benzoic acid] | 80% | 44.7% | inhibition at 0.1 µM (17β-HSD2): < 10%; inhibition at 1 µM (17β-HSD2): 34.2%
O=C(NCCc1ccc(S(=O)(=O)Nc2cccc(-c3c(O)ccc4cc(-c5cccc(O)c5)ccc34)c2)cc1)C(F)(F)F [Compound 88, 2,2,2-trifluoro-N-[2-(4-{3-[2-hydroxy-6-(3-hydroxyphenyl)-1-naphthyl]phenylsulfamoyl}phenyl)ethyl]acetamide] | 82.4% | 76.8% | –
COC(=O)c1csc(S(=O)(=O)Nc2cccc(-c3c(O)ccc4cc(-c5cccc(O)c5)ccc34)c2)c1OC [Compound 78, methyl 5-{3-[2-hydroxy-6-(3-hydroxyphenyl)-1-naphthyl]phenylsulfamoyl}-4-methoxythiophene-3-carboxylate] | 79.2% | 63.7% | –
O=C(CCc1cc(O)cc(-c2ccc3cc(O)ccc3c2)c1)Nc1ccccc1 [Compound 34, 3-[3-Hydroxy-5-(6-hydroxynaphthalene-2-yl)phenyl]-N-phenylpropionamide] | 13.6% | < 10% | –
Oc1ccc(-c2cnc3cc(O)ccc3c2)cc1 [Compound 15, 3-(4-Hydroxyphenyl)quinolin-7-ol] | < 10% | < 10% | –
OCc1ccc(-c2ccc3cc(O)ccc3c2)cc1 [Compound 11, 6-[4-(hydroxymethyl)phenyl]-2-naphthol] | 12.9% | < 10% | –
O=C(O)c1cccc(-c2ccc3cc(O)ccc3c2)c1 [Compound 7, 3-(6-hydroxy-2-naphthyl)benzoic acid] | 75.8% | 36.3% | –
N-{3-[2-hydroxy-6-(3-hydroxyphenyl)-1-naphthyl]phenyl-3-nitrobenzenesulfonamide [Compound 75] | – | – | HSD1 100 nM (% inhibition) (17β-HSD1; inhibitor 100 nM): 72.8%; HSD 1 μM (% inhibition of HSD1) (17β-HSD1; inhibitor 1 μM): 78.9%
O=S(=O)(Nc1cccc(-c2c(O)ccc3cc(-c4cccc(O)c4)ccc23)c1)c1ccc(Cl)s1 [Compound 74, 5-chloro-N-{3-[2-hydroxy-6-(3-hydroxyphenyl)-1-naphthyl]-phenyl}thiophene-2-sulfonamide] | 78% | 46.4% | –
O=C(Nc1ncccn1)c1c(O)ccc2cc(-c3cccc(O)c3)ccc12 [Compound 50, 2-Hydroxy-6-(3-hydroxyphenyl)-N-(pyrimidin-2-yl)-1-naphthamide] | 40% | < 10% | –
N#Cc1ccccc1S(=O)(=O)Nc1cccc(-c2c(O)ccc3cc(-c4cccc(O)c4)ccc23)c1 [Compound 76, 2-cyano-N-{3-[2-hydroxy-6-(3-hydroxyphenyl)-1-naphthyl]phenyl}benzenesulfonamide] | 79.7% | 62.1% | –
Cc1noc(NC(=O)c2c(O)ccc3cc(-c4cccc(O)c4)ccc23)c1C [Compound 47, N-(3,4-Dimethylisoxazol-5-yl)-2-hydroxy-6-(3-hydroxyphenyl)-1-naphthamide] | 70% | 43% | –
Oc1cccc(-c2ccc3c(O)cccc3c2)c1 [Compound 24, 6-(3-Hydroxyphenyl)-1-naphthol] | < 10% | < 10% | –
Oc1cc(-c2ccc3cc(O)ccc3c2)cc(-c2ccc3cc(O)ccc3c2)c1 [Compound 28, 6-[3-Hydroxy-5-(6-hydroxy-2-naphthyl)phenyl]-2-naphthol] | < 10% | < 10% | –
O=S(=O)(Nc1cccc(-c2c(O)ccc3cc(-c4cccc(O)c4)ccc23)c1)c1cccs1 [Compound 87, N-{3-[2-hydroxy-6-(3-hydroxyphenyl)-1-naphthyl]phenyl}thiophene-2-sulfonamide] | 80.6% | 71.7% | –
CSc1nccc(-c2ccc(S(=O)(=O)Nc3cccc(-c4c(O)ccc5cc(-c6cccc(O)c6)ccc45)c3)s2)n1 [Compound 80, N-{3-[2-hydroxy-6-(3-hydroxyphenyl)-1-naphthyl]phenyl}-5-[2-(methylsulfanyl)pyrimidin-4-yl]thiophene-2-sulfonamide] | 79.4% | 64.7% | –

Compound | inhibition at 1 µM (17β-HSD1; inhibitor 1 μM) | inhibition at 0.1 µM (17β-HSD1; inhibitor 100 nM) | further results
O=C(Nc1nccs1)c1cccc(-c2c(O)ccc3cc(-c4cccc(O)c4)ccc23)c1 [Compound 71, 3-(2-Hydroxy-6-(3-hydroxyphenyl)naphthalene-1-yl)-N-(thiazol-2-yl)benzamide] | 74.7% | 66.4% | –
O=C(Nc1ccccc1)c1cc(O)cc(-c2ccc3cc(O)ccc3c2)c1 [Compound 30, 3-Hydroxy-5-(6-hydroxynaphthalene-2-yl)-N-phenylbenzamide] | < 10% | < 10% | –
O=C(O)c1ccc(-c2ccc3cc(O)ccc3c2)cc1 [Compound 8, 4-(6-hydroxy-2-naphthyl)benzoic acid] | < 10% | < 10% | –
Cc1ccc(S(=O)(=O)c2c(O)ccc3cc(-c4cccc(O)c4)ccc23)cc1 [Compound 92] | 75% | – | –
Oc1ccc(-c2ccc3cc(O)ccc3c2)cc1 [Compound 20, 6-(4-Hydroxyphenyl)-2-naphthol] | < 10% | < 10% | –
O=S(=O)(Nc1cccc(-c2c(O)ccc3cc(-c4cccc(O)c4)ccc23)c1)c1cc(F)c(Br)cc1F [Compound 89, 4-bromo-2,5-difluoro-N-{3-[2-hydroxy-6-(3-hydroxyphenyl)-1-naphthyl]phenyl}benzenesulfonamide] | 78.2% | 68% | –
O=[N+]([O-])c1cc(S(=O)(=O)Nc2cccc(-c3c(O)ccc4cc(-c5cccc(O)c5)ccc34)c2)ccc1Cl [Compound 77, 4-chloro-N-{3-[2-hydroxy-6-(3-hydroxyphenyl)-1-naphthyl]phenyl}-3-nitrobenzenesulfonamide] | 79.9% | 73.2% | –
CC(=O)Nc1ccc(-c2ccc3cc(O)ccc3c2)cc1O [Compound 35, N-[2-Hydroxy-4-(6-hydroxy-2-naphthyl)phenyl]acetamide] | < 10% | < 10% | –
CNC(=O)c1cc(O)cc(-c2ccc3cc(O)ccc3c2)c1 [Compound 29, 3-Hydroxy-5-(6-hydroxynaphthalen-2-yl)-N-methylbenzamide] | < 10% | < 10% | –
Oc1cccc(-c2cnc3cc(O)ccc3c2)c1 [Compound 16, 3-(3-Hydroxyphenyl)quinolin-7-ol] | 56.9% | 24% | –
Oc1ccc2cc(-c3ccccc3)ccc2c1 [Compound 2, 6-Phenylnaphthalene-2-ol] | < 10% | < 10% | –
Oc1ccc(-c2ccc3c(O)cccc3c2)cc1 [Compound 21, 6-(4-Hydroxyphenyl)-1-naphthol] | < 10% | < 10% | –
O=[N+]([O-])c1ccc(S(=O)(=O)Nc2cccc(-c3c(O)ccc4cc(-c5cccc(O)c5)ccc34)c2)cc1 [Compound 81, N-{3-[2-hydroxy-6-(3-hydroxyphenyl)-1-naphthyl]phenyl}-4-nitrobenzenesulfonamide] | 82.9% | 71.5% | –
O=[N+]([O-])c1cc(C(F)(F)F)ccc1S(=O)(=O)Nc1cccc(-c2c(O)ccc3cc(-c4cccc(O)c4)ccc23)c1 [Compound 83, 2-nitro-N-{3-[2-hydroxy-6-(3-hydroxyphenyl)-1-naphthyl]phenyl}-4-(trifluoromethyl)benzenesulfonamide] | 78.1% | 49.8% | –
O=C(c1c(O)ccc2cc(-c3cccc(O)c3)ccc12)N1CCCCC1 [Compound 51, (2-Hydroxy-6-(3-hydroxyphenyl)naphthalene-1-yl)(piperidin-1-yl)methanone] | 73.4% | 28.8% | –
Oc1cccc(-c2cnc3ccccc3c2)c1 [Compound 13, 3-(Quinolin-3-yl)phenol] | < 10% | < 10% | –
O=C(/C=C/c1cc(O)cc(-c2ccc3cc(O)ccc3c2)c1)Nc1ccccc1 [Compound 32, (E)-3-[3-Hydroxy-5-(6-hydroxynaphthalene-2-yl)phenyl]-N-phenylacrylamide] | 19.6% | < 10% | –
